Data from patent US4585773A, “Isoindolinyl-alkyl-piperazines” (Bristol-Myers Company, priority 1984, dated 1986).
Like-named read-outs stand apart in the source and are kept apart here.

What was measured:
[1] = test system: α blocking activity (phenylephrine); experiment: in vivo α blocking activity, phenylephrine (PE) as α-agonist (Table III); design: species or system rat; ED50: unit not given beside the values; settings: for Average Dose Shift: ED50 after/before drug, PE; for in vivo α blocking activity (in words): conclusion from Table III; for ED50: iv
Procedure: (§1) In this example the compounds of Examples I (modified), II, III, V, VI, VII, VIII, IX and XI were tested in rats for in vivo α blocking activity according to methodology described at page 312 of Deitchman, et al., Journal of Pharmacological Methods, 3, 311-321 (1980). In this test phenylephrine (PE below) or norepinephrine (NE below) was administered as an α-agonist to the rats before and after dosing with the test drug and the average interpolated dose or PE/NE effecting a 50 mm Hg increase in mean arterial blood pressure was determined. Table III below records the results. In such Table, ED50 stands for such average interpolated dose and Average Dose Shift stands for the average ratio of ED50 after drug administration to ED50 before drug administration. The compound of Example I was tested as its monochloride 2-propanolate hydrate, i.e. as C22 H27 ClN4 O4 S.HCl 0.2(CH3)2 CHOH.0.15H2 O in Tests 1-5 and as the 3/4 mole hydrochloride, i.e. C22 H27 ClN 4 O4 S.3/4HCL in Tests 2a and 3a. The route was intravenous except in the case of the runs of Test Nos. 2a, 3, 3a, 26-29 the route was oral.

[2] = conscious rat diuretic screen of Lipschitz (Table I); type: in vivo, rat (female Sprague Dawley; male Okamoto-Aoki); settings: for response vs control in vivo at 0.3 mg/kg / response vs control in vivo at 3 mg/kg / response vs control in vivo at 30 mg/kg / response vs control in vivo at 10 mg/kg: Rattus norvegicus, po
Procedure: With respect to diuretic utility there can be mentioned the conscious rat diuretic screen of Lipschitz, et al. (J. Pharmacol. Exp. Therap. 79, 97-110 (1943)). In this test, dose response assays of diuretic, natruiretic and kaliuretic activity are determined by oral administration of the test substance. The compounds synthesized in Examples I-XI were tested for diuretic […]. The compound of Example I was tested as its monohydrochloride 2-propanolate hydrate, i.e. as C22 […] ClN4 O4 S.HCl. 0.2(CH3)2 CHOH.0.15H2 O. Testing was carried out by the diuretic screen of Lipschitz, et al. described previously. In Table I below Volume Ratio is the ratio of total volume excreted for the test comuound compared to the total volume excreted for the control, Na^+ Ratio is the Na^+ excreted for the test compound compared to the Na^+ excreted for the control, K^+ Ratio is the K^+ excreted for the test compound compared to the K^+ excreted for the control. Female Sprague Dawley rats were used in Test Nos. 1, 2, 6, 7, 11-29. Male Okamoto-Aoki rats were used in Test Nos. 3-5 and 8-10 and testing for antihypertensive activity was carried out simultaneously on the Test Nos. 3-5 rats. In some instances, compounds were retested at the same dose level.

[3] = test system: α blocking activity (norepinephrine); experiment: in vivo α blocking activity, norepinephrine (NE) as α-agonist (Table III); design: species or system rat; settings: ED50 after/before drug
Procedure: as §1

[4] = 3 mg/kg oral, male Okamoto-Aoki rats
[5] = 30 mg/kg oral, female Sprague Dawley rats
[6] = 30 mg/kg oral, male Okamoto-Aoki rats
[7] = 3 mg/kg oral, male Okamoto-Aoki rats, read-out: K+ Ratio
[8] = 3 mg/kg oral, male Okamoto-Aoki rats, read-out: Na+ Ratio
[9] = 3 mg/kg oral, male Okamoto-Aoki rats, read-out: Volume Ratio
[10] = 30 mg/kg oral, female Sprague Dawley rats, read-out: K+ Ratio
[11] = 30 mg/kg oral, female Sprague Dawley rats, read-out: Na+ Ratio
[12] = 30 mg/kg oral, female Sprague Dawley rats, read-out: Volume Ratio
[13] = 30 mg/kg oral, male Okamoto-Aoki rats, read-out: K+ Ratio
[14] = 30 mg/kg oral, male Okamoto-Aoki rats, read-out: Na+ Ratio
[15] = 30 mg/kg oral, male Okamoto-Aoki rats, read-out: Volume Ratio

Row | Compound | in vivo α blocking activity (in words) [1] | ED50 [1] | Urinary Na/K (Test Compound) [2, 4] | Urinary Na/K (Test Compound) [2, 5] | Urinary Na/K (Test Compound) [2, 6] | response vs control in vivo at 3 mg/kg [2, 7] [%] | response vs control in vivo at 3 mg/kg [2, 8] [%] | response vs control in vivo at 3 mg/kg [2, 9] [%] | response vs control in vivo at 30 mg/kg [2, 10] [%] | response vs control in vivo at 30 mg/kg [2, 11] [%] | response vs control in vivo at 30 mg/kg [2, 12] [%] | response vs control in vivo at 30 mg/kg [2, 13] [%] | response vs control in vivo at 30 mg/kg [2, 14] [%] | response vs control in vivo at 30 mg/kg [2, 15] [%] | also measured
1 | COc1ccccc1N1CCN(CCCN2Cc3cc(Cl)c(S(N)(=O)=O)cc3C2=O)CC1 [Example I, 6-chloro-2,3-dihydro-2-[3-[4-(2-methoxyphenyl)-1-piperazinyl]propyl]-3-oxo-1H-isoindole-5-sulfonamide] | active as in vivo α blockers | 161.8 | 1.14 | 2.98 | 1.56 | 103 | 168 | 204 | 106 | 136 | 98 | 117 | 261 | 251 | Average Dose Shift ([1]; dose 30, oral): 33 ± 11; Urinary Na/K (Test Compound) ([2]; 0.3 mg/kg oral, male Okamoto-Aoki rats): 0.81; Urinary Na/K (Test Compound) ([2]; 3 mg/kg oral, female Sprague Dawley rats): 2.55; natriuretic response (in words) ([2]; 3.0 to 30 mg/kg body weight): dose-dependent natriuretic response; response vs control in vivo at 0.3 mg/kg ([2]; 0.3 mg/kg oral, male Okamoto-Aoki rats, read-out: K+ Ratio): 78%; response vs control in vivo at 0.3 mg/kg ([2]; 0.3 mg/kg oral, male Okamoto-Aoki rats, read-out: Na+ Ratio): 96%; response vs control in vivo at 0.3 mg/kg ([2]; 0.3 mg/kg oral, male Okamoto-Aoki rats, read-out: Volume Ratio): 82%; response vs control in vivo at 3 mg/kg ([2]; 3 mg/kg oral, female Sprague Dawley rats, read-out: K+ Ratio): 100%; response vs control in vivo at 3 mg/kg ([2]; 3 mg/kg oral, female Sprague Dawley rats, read-out: Na+ Ratio): 108%; response vs control in vivo at 3 mg/kg ([2]; 3 mg/kg oral, female Sprague Dawley rats, read-out: Volume Ratio): 93%; Average Dose Shift ([3]; dose 0.3, intravenous): 3 ± 0.3; Average Dose Shift ([3]; dose 1.0, intravenous): 11 ± 1
2 | COc1ccccc1N1CCN(CCN2Cc3cc(Cl)c(S(N)(=O)=O)cc3C2=O)CC1 [Example III, 6-Chloro-2,3-dihydro-2-[2-[4-(2-methoxyphenyl)-1-piperazinyl]ethyl]-3-oxo-1H-isoindole-5-sulfonamide] | active as in vivo α blockers | 41.0 | 6.1 | 3.44 | 6.7 | 121 | 113 | 122 | 116 | 134 | 116 | 130 | 135 | 163 | Average Dose Shift ([1]; dose 10, intravenous): dose too high; Urinary Na/K (Test Compound) ([2]; 10 mg/kg oral, male Okamoto-Aoki rats): 6.7; response vs control in vivo at 10 mg/kg ([2]; 10 mg/kg oral, male Okamoto-Aoki rats, read-out: K+ Ratio): 115%; response vs control in vivo at 10 mg/kg ([2]; 10 mg/kg oral, male Okamoto-Aoki rats, read-out: Na+ Ratio): 116%; response vs control in vivo at 10 mg/kg ([2]; 10 mg/kg oral, male Okamoto-Aoki rats, read-out: Volume Ratio): 126%
